The structures appear in SMILES notation. pKi: −log10 of the molar value.

Experiment [1] deals with T1, HIV-1 protease (Human immunodeficiency virus type 1 group M subtype B, UniProt P04585). The experiment can be described thus: biochemical. The following applies: for inhibition at 0.41 µM: read-out: HIV-1 Protease % Inhib, dose 0.410 uM; for inhibition at 1.23 µM: read-out: HIV-1 Protease % Inhib, dose 1.230 uM; for inhibition at 3.7 µM: read-out: HIV-1 Protease % Inhib, dose 3.700 uM; for inhibition at 11 µM: read-out: HIV-1 Protease % Inhib, dose 11.000 uM; for inhibition at 33 µM: read-out: HIV-1 Protease % Inhib, dose 33.000 uM; for inhibition at 100 µM: read-out: HIV-1 Protease % Inhib, dose 100.000 uM; for inhibition at 0.123 µM: read-out: HIV-1 Protease % Inhib, dose 0.123 uM; for inhibition at 0.37 µM: read-out: HIV-1 Protease % Inhib, dose 0.370 uM; for inhibition at 1.1 µM: read-out: HIV-1 Protease % Inhib, dose 1.100 uM; for inhibition at 3.3 µM: read-out: HIV-1 Protease % Inhib, dose 3.300 uM; for inhibition at 10 µM: read-out: HIV-1 Protease % Inhib, dose 10.000 uM; for inhibition at 30 µM: read-out: HIV-1 Protease % Inhib, dose 30.000 uM. In short, it runs like this:
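Biotinylated, FITC-labeled peptide substrate (20 μl of 0.2 μM) incubated with HIV-1 protease (10 μl of 0.1 μM) and compound in 0.1 M sodium acetate pH 5.5, 1.0 M NaCl, 0.05% NP-40, 1 h, room temperature, dark. Streptavidin beads then capture uncleaved substrate; filtered labeled product read by fluorescence, giving percent inhibition.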

Experiment [2] concerns the target T1, HIV-1 protease. In words: biochemical. The following applies: read-out: HIV-1 FITC KI. In outline:
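Ki from two-fold serial inhibitor dilutions (24–48 concentrations) with 40 nM HIV-1 protease stock and 200 μM substrate stock, 90 min at room temperature; stopped with avidin beads. Reference inhibitor run in parallel; Ki by nonlinear least-squares fit.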

On to `O=C(Nc1cccc(C(c2c(O)c3c(oc2=O)CCCCCC3)C2CC2)c1)OCc1ccccc1` (stereo not drawn) [Example 119, Carbamic acid, [3-[cyclopropyl(5,6,7,8,9,10-hexahydro-4-hydroxy-2-oxo-2H-cycloocta[b]pyran-3-yl)methyl]phenyl]-, phenylmethyl ester], for which, at HIV-1 protease [1], the inhibition at 0.41 µM was 27.5%, the inhibition at 1.23 µM was found to be 55.4%, the inhibition at 3.7 µM stood at 82.5% and the inhibition at 11 µM was 97.7%. Moreover, at HIV-1 protease [1], the inhibition at 33 µM came to 96.8% and the inhibition at 100 µM turned out to be 101%. Also, the pKi (commonly the negative decadic logarithm of the Ki, by convention in mol/L) on HIV-1 protease [2] is 6.59.
As to `CC(C)N=C(Nc1cccc(C(c2c(O)c3c(oc2=O)CCCCCC3)C2CC2)c1)NC(C)C` (stereo not drawn) [Example 120, N-(3-(cyclopropyl-(4-hydroxy-2-oxo-5,6,7,8,9,10-hexahydro-2H-cycloocta[b]pyran-3-yl)-methyl)-phenyl)-N',N"-diisopropyl-guanidine], at HIV-1 protease [1], the inhibition at 0.41 µM is less than 10%, the inhibition at 1.23 µM is 22.2%, the inhibition at 3.7 µM came to 54.6% and the inhibition at 11 µM was determined as 80.7%. Besides, at HIV-1 protease [1], the inhibition at 33 µM was found to be 101% and the inhibition at 100 µM stood at 106%. Further, on HIV-1 protease [2], the pKi was 6.01.
Take `O=c1oc2c(c(O)c1C(c1ccccc1)C1CC1)CCCCCC2CC1CC1` (stereo not drawn) [Example 121, 10-Cyclopropylmethyl-3-(cyclopropyl-phenyl-methyl)-4-hydroxy-5,6,7,8,9,10-hexahydro-cycloocta[b]pyran-2-one]: on HIV-1 protease [1], the inhibition at 0.123 µM is 37.1%, the inhibition at 0.37 µM was determined as 74.9%, the inhibition at 1.1 µM came out at 99.5% and the inhibition at 3.3 µM stood at 106%. Also, at HIV-1 protease [1], the inhibition at 10 µM came out at 108% and the inhibition at 30 µM is 109%. In addition, the pKi on HIV-1 protease [2] is 7.62.
As for `CCC(c1ccccc1)c1c(O)c2c(oc1=O)C(Cc1ccccc1)CCCCC2` (stereo not drawn) [Example 122], at HIV-1 protease [1], the inhibition at 0.41 µM amounted to 35.1%, the inhibition at 1.23 µM is 63.5%, the inhibition at 3.7 µM turned out to be 91.7% and the inhibition at 11 µM came to 98%. Further, on HIV-1 protease [1], the inhibition at 33 µM amounted to 93.2% and the inhibition at 100 µM was found to be 94.3%. At HIV-1 protease [2], the negative-log Ki (pKi) was 6.76.
As for `O=c1oc2c(c(O)c1C(C1CC1)C1CC1)CCCCCC2Cc1ccccc1` (stereo not drawn) [Example 123, 10-Benzyl-3-dicyclopropylmethyl-4-hydroxy-5,6,7,8,9,10-hexahydro-cycloocta[b]pyran-2-one], on HIV-1 protease [1], the inhibition at 0.41 µM came out at 23.7%, the inhibition at 1.23 µM turned out to be 59.1%, the inhibition at 3.7 µM was determined as 82.5% and the inhibition at 11 µM turned out to be 88.3%. Further, at HIV-1 protease [1], the inhibition at 33 µM was 83.9% and the inhibition at 100 µM stood at 78.9%. Also, the pKi at HIV-1 protease [2] was 6.59.
`CCC(c1ccccc1)c1c(O)c2c(oc1=O)C(CC1CC1)CCC2` (stereo not drawn) [Example 124, 8-Cyclopropylmethyl-4-hydroxy-3-(1-phenyl-propyl)-5,6,7,8-tetrahydro-chromen-2-one]: at HIV-1 protease [1], the inhibition at 0.41 µM was less than 10%, the inhibition at 1.23 µM was 32.4%, the inhibition at 3.7 µM turned out to be 65.6% and the inhibition at 11 µM was found to be 81.6%. Also, at HIV-1 protease [1], the inhibition at 33 µM came to 88.2% and the inhibition at 100 µM was found to be 89.4%. The pKi at HIV-1 protease [2] is 5.99.
In the case of `O=c1oc2c(c(O)c1C(c1ccccc1)C1CC1)CCCCC2CC1CC1` (stereo not drawn) [Example 125, 9-Cyclopropylmethyl-3-(cyclopropyl-phenyl-methyl)-4-hydroxy-6,7,8,9-tetrahydro-5-H-cyclohepta[b]pyran-2-one], on HIV-1 protease [1], the inhibition at 0.41 µM stood at 101%, the inhibition at 1.23 µM is 108%, the inhibition at 3.7 µM was found to be 108% and the inhibition at 11 µM was 108%. At HIV-1 protease [1], the inhibition at 33 µM came to 102% and the inhibition at 100 µM turned out to be 105%. Further, the pKi at HIV-1 protease [2] is 7.62.
For the compound `CCC(c1ccccc1)c1c(O)c2c(oc1=O)C(C)CCCCC2` (stereo not drawn) [Example 126, 4-Hydroxy-10-methyl-3-(1-phenyl-propyl)-5,6,7,8,9,10-hexahydro-cycloocta[b]pyran-2-one], on HIV-1 protease [1], the inhibition at 0.41 µM was found to be 25.9%, the inhibition at 1.23 µM is 59%, the inhibition at 3.7 µM was determined as 89.8% and the inhibition at 11 µM worked out at 96.7%. Besides, at HIV-1 protease [1], the inhibition at 33 µM turned out to be 100% and the inhibition at 100 µM is 95%. For the same compound, the pKi on HIV-1 protease [2] was 6.48.
For the compound `CCC1CCCCCc2c1oc(=O)c(C(c1ccccc1)C1CC1)c2O` (stereo not drawn) [Example 127, 3-(Cyclopropyl-phenyl-methyl)-10-ethyl-4-hydroxy-5,6,7,8,9,10-hexahydro-cycloocta[b]pyran-2-one], on HIV-1 protease [1], the inhibition at 0.123 µM amounted to 52.3%, the inhibition at 0.37 µM was 92.5%, the inhibition at 1.1 µM amounted to 112% and the inhibition at 3.3 µM is 115%. Moreover, at HIV-1 protease [1], the inhibition at 10 µM amounted to 117% and the inhibition at 30 µM came out at 111%. For the same compound, the pKi on HIV-1 protease [2] was 7.48.
For `CCCC1CCCCCc2c1oc(=O)c(C(c1ccccc1)C1CC1)c2O` (stereo not drawn) [Example 128, 3-(Cyclopropyl-phenyl-methyl)-4-hydroxy-10-propyl-5,6,7,8,9,10-hexahydro-cycloocta[b]pyran-2-one], on HIV-1 protease [1], the inhibition at 0.123 µM was 32.5%, the inhibition at 0.37 µM was 85.6%, the inhibition at 1.1 µM came to 102% and the inhibition at 3.3 µM was 112%. In addition, at HIV-1 protease [1], the inhibition at 10 µM was 107% and the inhibition at 30 µM was 102%. Besides, the pKi at HIV-1 protease [2] is 7.59.
In the case of `CCCCC1CCCCCc2c1oc(=O)c(C(c1ccccc1)C1CC1)c2O` (stereo not drawn) [Example 129, 10-Butyl-3-(cyclopropyl-phenyl-methyl)4-hydroxy-5,6,7,8,9,10-hexahydro-cycloocta[b]pyran-2-one], on HIV-1 protease [1], the inhibition at 0.123 µM was determined as 23.2%, the inhibition at 0.37 µM came out at 67.8%, the inhibition at 1.1 µM is 96.5% and the inhibition at 3.3 µM was determined as 106%. In addition, at HIV-1 protease [1], the inhibition at 10 µM was found to be 117% and the inhibition at 30 µM was 120%. The negative-log Ki (pKi) at HIV-1 protease [2] was 7.51.
With `O=c1oc2c(c(O)c1C(c1ccccc1)C1CC1)CCCCCC2CC1CCCCO1` (stereo not drawn) [Example 130, 3-(Cyclopropyl-phenyl-methyl)-4-hydroxy-10-(tetrahydro-pyran-2-ylmethyl)-5,6,7,8,9,10-hexahydro-cycloocta[b]pyran-2-one], at HIV-1 protease [1], the inhibition at 0.37 µM was 14.7%, the inhibition at 1.1 µM is 54%, the inhibition at 3.3 µM amounted to 88.6% and the inhibition at 10 µM is 104%. In addition, the inhibition at 30 µM on HIV-1 protease [1] was found to be 112%. Further, the pKi on HIV-1 protease [2] was 6.92.
`CC(C)CC1CCCCCc2c1oc(=O)c(C(c1ccccc1)C1CC1)c2O` (stereo not drawn) [Example 131, 3-(Cyclopropyl-phenyl-methyl)-4-hydroxy-10-isobutyl-5,6,7,8,9,10-hexahydro-cycloocta[b]pyran-2-one]: at HIV-1 protease [1], the inhibition at 0.123 µM stood at 30.7%, the inhibition at 0.37 µM is 74.2%, the inhibition at 1.1 µM was 98.7% and the inhibition at 3.3 µM stood at 112%. Besides, on HIV-1 protease [1], the inhibition at 10 µM came to 116% and the inhibition at 30 µM is 106%. The pKi at HIV-1 protease [2] is 7.52.

(Values after patent publication US5686486A, “4-hydroxy-benzopyran-2-ones and 4-hydroxy-cycloalkyl[b]pyran-2-ones useful to treat retroviral infections” (priority 1995, dated 1997).)
